According to patent US20090023630A1, “Methods and Means for Use in Diagnostics and Treatment of Diabetes” (priority 2005, published 2009):
Where two headings read alike, the source gives them in different places. Ends that are not written are not given here.

Biological target: HLA-A*0201 (Homo sapiens, UniProt P04439, D140Y/D185E/D98H/E176V/E277Q/G131W/G231S/I119V/I121R/I166T/I218V/L300P/L318F/N151K/N90K/P208A/P217A/Q86G/Q94H/R138H/R169H/T345S)
Test: Peptide-HLA binding (competition with Fl-labeled HLA-A*0201 binding peptide)
Protocol: Peptide binding was assessed as described (21). […] HLA-bound and non-bound Fl-labeled peptides were separated by HPLC gel permeation chromatography with fluorescence detection. The concentration at which the test peptide reduced the amount of HLA-bound Fl-labeled peptide by 50% (IC50) was calculated using non-linear regression analysis. To select candidate HLA-A*0201 binding peptides from the insulin B chain, the molecule was screened for HLA-A*0201 binding motif containing peptides with a combination of two known binding prediction algorithms (18).

[1] = peptide concentration needed to inhibit binding of FL-labeled reference peptide for 50%, read-out: IC50 (binding affinity for HLA-A*0201)

| Compound | IC50 [1] [µM] | IC50 [µM] |
| --- | --- | --- |
| CC(C)C[C@H](NC(=O)[C@H](C)N)C(=O)N[C@@H](Cc1ccc(O)cc1)C(=O)N[C@@H](CC(C)C)C(=O)N[C@H](C(=O)N[C@@H](CS)C(=O)NCC(=O)N[C@@H](CCC(=O)O)C(=O)N[C@@H](CCCNC(=N)N)C(=O)NCC(=O)O)C(C)C [Peptide 14-23] | > 100 | – |
| ALYLVCGER [Peptide 14-22] | – | 90.2 |
| ALYLVCGERGF [Peptide 14-24] | 2.26 | – |
| GSHLVEALYLV [Peptide 8-18] | 3.73 | – |
| HLCGSGLVEAL [Peptide 5-15, HLCGSGLVEAL] | 0.44 | – |
| HLCGSHLVEA [Peptide 5-14] | – | 0.06 |
| HLVEALYLVC [Peptide 10-19] | 1.75 | – |
| HLVEALYLVCG [Peptide 10-20] | – | 0.19 |
| LVEALYLVC [Peptide 11-19] | – | 3.6 |
| QHLCGSHLV [Peptide 4-12] | 9.12 | – |
| SHLVEALYL [Peptide 9-17] | 59.5 | – |
| SHLVEALYLV [Peptide 9-18] | – | 1.37 |
| YLVCGERGFF [Peptide 16-25] | 2.3 | – |
| YLVCGERGFFY [Peptide 16-26] | 8.59 | – |
